Experimental data reported in patent US10626148B2, “Glycopeptides conjugates and uses thereof” (priority 2015, dated 2020).

Experiments:
MRSA = assay: Resistance development study, serial passages; type: cell-based, S. aureus; conditions: passaged at MIC/2
Description: MIC values of the compound 4 and vancomycin were determined against MRSA as described above. For the next day MIC experiment, the bacterial dilution was made by using the bacteria from sub-MIC concentration of the compounds (at MIC/2). Then, the concentration of this bacteria was adjusted to ˜10^5 CFU/mL based on OD600 and subjected to next MIC assay. After a 24 h incubation period, again bacterial dilution was prepared by using the bacterial suspension from sub-MIC concentration of the compound (at MIC/2) and assayed for another MIC experiment. The process was repeated for 25 passages, and the fold increase in MIC was determined. […] Thus bacteria were unable in acquiring resistance to this compound and this emphasizes the longevity of such compounds in clinics.

VREs ATCC 51575 = type: in vivo, E. faecalis; conditions: CD-1 mice, 12 mg/kg i.p. once daily, three doses
Description: Female CD-1 mice 6 to 8 weeks of age and weighing 20 to 25 g were used in this study. On day −7, all mice were injected intravenously (i.v.) with 0.2 mL of 0.2% λ-carrageenan to increase their susceptibility to bacterial renal infection. λ-Carrageenan increases mice susceptibility to renal infection following i.v. injection, possibly by forming a lattice structure in renal tissue and forming a support structure for bacterial attachment and growth. Bacterial strains that fail to cause renal infection in normal mice produce significant renal infections in λ-carrageenan-treated mice. On day 0, all mice were injected i.v. with 0.2 mL of the bacterial culture (VREs ATCC 51575, 10^8 CFU/mouse) through the tail vein. Four hours after the bacterial inoculation, mice were treated intraperitoneally (i.p.) with vancomycin, compound 4 and linezolid at 12 mg/kg of body weight or 0.2 mL of saline (0.9% NaCl) control (n=5). All the test compounds or saline were administered once daily for an additional two consecutive days for a total of three doses. All mice were sacrificed on day 3. Both kidneys from each mouse were removed aseptically and homogenized in 10 mL of saline. The dilutions of the homogenate were plated onto sheep blood agar plates, which were incubated overnight at about 37° C. The bacterial titer was expressed as log10 CFU/g of kidney weight.

[1] = system: Vancomycin-resistant E. faecalis (VanA, ATCC 51575); assay: MIC, micro-dilution broth, VREs; type: cell-based; conditions: Enterococcus faecalis, ATCC51575
Description: (§1) Test compounds were assayed in a micro-dilution broth format. Stock solutions were made by serially diluting the compounds using autoclaved millipore water or broth media. The antibacterial activity of the compounds was determined against gram positive bactreia like methicillin-resistant S. aureus (MRSA), vancomycin-intermediate-resistant S. aureus (VISA), vancomycin-sensitive E. faecium (VSE), vancomycin-resistant E. faecalis and vancomycin-resistant E. faecium (VRE). Antibacterial activity of dipicolyl-vancomycin conjugate conjugate (4) in combination with meropemem was determined against gram-negative bacteria such as K. pneumoniae ATCC BAA2146, clinical isolates K. pneumoniae R3949, K. pneumoniae R3934, E. coli R3336 and A. baumanii R676. Bacteria, to be tested, were grown for about 10 h in the suitable media, MRSA, VISA and gram negative bacteria were grown in Yeast-dextrose broth (about 1 g of beef extract, about 2 g of yeast extract, about 5 g of peptone and about 5 g of NaCl in about 1000 mL of sterile distilled water (pH-7)). For solid media, about 5% agar was used along with above mentioned composition. VSE and VRE were cultured in Brain Heart Infusion broth (Himedia). The bacterial samples were freeze dried and stored at −80° C. About 5 μL of these stocks were added to about 3 mL of the nutrient broth or Brain Heart Infusion broth and the culture was grown for about 6 h at about 37° C. prior to the experiments. This 6 h grown culture gives about 10^9 cfu/mL and this was determined by spread plating method. The 6 h grown culture was diluted to give effective cell concentration of about 10^5 cfu/mL which was then used for determining MIC. Compounds were serially diluted, in sterile water (2-fold dilution is employed) in a way that the working concentration was about 10 μM for MRSA, and VSE while for VRE, VISA and gram negative bacteria; it was about 100 μM. About 50 μL of these serial dilutions were added to the wells of 96 well plate followed by the addition of about 150 μL of bacterial solution. The plates were then incubated at about 37° C., 150 rpm in the incubator and O.D at 620 nm was recorded at an interval of about 24 h using TECAN (Infinite series, M200 pro) Plate Reader. Each concentration had triplicate values and the whole experiment was done at least twice and the MIC value was determined by taking the average of triplicate O.D. values for each concentration and plotting it against concentration. The data was then subjected to sigmoidal fitting.

[2] = system: meropenem-resistant NDM-1 bacteria; assay: Combination with meropenem against NDM-1 gram negative bacteria; type: cell-based; conditions: in combination with meropenem
Description: Test compounds were assayed in a micro-dilution broth format. Stock solutions were made by serially diluting the compounds using autoclaved millipore water or broth media. The antibacterial activity of the compounds was determined against gram positive bactreia like methicillin-resistant S. aureus (MRSA), vancomycin-intermediate-resistant S. aureus (VISA), vancomycin-sensitive E. faecium (VSE), vancomycin-resistant E. faecalis and vancomycin-resistant E. faecium (VRE). Antibacterial activity of dipicolyl-vancomycin conjugate conjugate (4) in combination with meropemem was determined against gram-negative bacteria such as K. pneumoniae ATCC BAA2146, clinical isolates K. pneumoniae R3949, K. pneumoniae R3934, E. coli R3336 and A. baumanii R676. Bacteria, to be tested, were grown for about 10 h in the suitable media, MRSA, VISA and gram negative bacteria were grown in Yeast-dextrose broth (about 1 g of beef extract, about 2 g of yeast extract, about 5 g of peptone and about 5 g of NaCl in about 1000 mL of sterile distilled water (pH-7)). […] This 6 h grown culture gives about 10^9 cfu/mL and this was determined by spread plating method. […] The plates were then incubated at about 37° C., 150 rpm in the incubator and O.D at 620 nm was recorded at an interval of about 24 h using TECAN (Infinite series, M200 pro) Plate Reader. Each concentration had triplicate values and the whole experiment was done at least twice and the MIC value was determined by taking the average of triplicate O.D. values for each concentration and plotting it against concentration. […]
(§2) Then, the antibacterial activities of Dipicolyl-vancomycin conjugate (4) is checked in combination with meropenem against New-Delhi β-lactamase producing gram negative bacteria such as K. pneumoniae BAA2146, clinical isolates K. pneumoniae R3949, K. pneumoniae R3934, E. coli R3336 and A. baumanii R676. […] Further we have also evaluated the antibacterial activity of dipicolyl-vancomycin conjugate (4) in presence of zinc sulphate, wherein it forms dipicolyl-vancomycin-zinc complex (5).

[3] = In-vivo toxicology, systemic toxicity; conditions: 100 mg/kg
Description: To evaluate maximum tolerability of the new glycopeptide, systemic toxicity was performed on CD-1 female mice. Each mouse was injected with a 0.2 mL of freshly prepared compound 4 solution in saline. The dose of the compound administered was 100 mg/kg (n=5).

[4] = system: Methicillin-resistant S. aureus (ATCC 33591); assay: MIC, micro-dilution broth, MRSA; type: cell-based; conditions: Staphylococcus aureus
Description: as §1

[5] = system: Vancomycin-sensitive E. faecium (ATCC 19634); assay: MIC, micro-dilution broth, VSEm; type: cell-based; conditions: Enterococcus faecium, ATCC19634
Description: as §1

[6] = system: NDM-1 expressing Klebsiella pneumoniae R3934; assay: microbe, parasite or virus in culture; type: cell-based; conditions: Klebsiella pneumoniae R3934
Description: as §1, §2

[7] = system: NDM-1 expressing Klebsiella pneumoniae ATCC BAA2146; assay: microbe, parasite or virus in culture; type: cell-based; conditions: Klebsiella pneumoniae ATCC BAA2146
Description: as §1, §2

[8] = system: NDM-1 expressing Klebsiella pneumoniae R3949; assay: microbe, parasite or virus in culture; type: cell-based; conditions: Klebsiella pneumoniae R3949
Description: as §1, §2

[9] = system: NDM-1 expressing Escherichia coli R3336; assay: microbe, parasite or virus in culture; type: cell-based; conditions: Escherichia coli R3336
Description: as §1, §2

[10] = system: Vancomycin-resistant E. faecium (VanA, ATCC 51559); assay: MIC, micro-dilution broth, VREm; type: cell-based
Description: as §1

## CN[C@H](CC(C)C)C(=O)N[C@H]1C(=O)N[C@@H](CC(N)=O)C(=O)N[C@H]2C(=O)N[C@H]3C(=O)N[C@H](C(=O)N[C@H](C(=O)NCCCCCCN(Cc4ccccn4)Cc4ccccn4)c4cc(O)cc(O)c4-c4cc3ccc4O)[C@H](O)c3ccc(c(Cl)c3)Oc3cc2cc(c3O[C@H]2OC(CO)[C@H](O)C(O)C2O[C@H]2CC(C)(N)[C@H](O)C(C)O2)Oc2ccc(cc2Cl)[C@H]1O (stereo partly drawn) [Compound 4, Dipicolyl-vancomycin conjugate]
MRSA
  fold increase in MIC after 25 serial passages: remained the same
VREs ATCC 51575
  reduction of bacterial titer from infected kidneys in comparison to vancomycin: reduced bacterial titer from the infected kidneys more effectively
VREs ATCC 51575; kidneys
  CFU reduction compared to vehicle treated control (saline): ~5.0 log10 CFU
[1]
  MIC: 2.5 µM
[2]
  resensitization of meropenem-resistant NDM-1 bacteria to meropenem (synergistic activity): able to resensitize
[3]; CD-1 female mice
  survival at 14 days: All the mice were found to survive
[3]; female, CD-1, mouse, in vivo
  LD50 at 14 days: > 100 mg/kg
[4]
  MIC: 0.6 µM
[5]
  MIC: 0.3 µM
[6]
  MIC of Meropenem in presence of compound 4 at 12 μM: 3.1 µg/mL
[7]
  MIC of Meropenem in presence of compound 4 at 12 μM: 1.5 µg/mL
[8]
  MIC of Meropenem in presence of compound 4 at 12 μM: 3.1 µg/mL
[9]
  MIC of Meropenem in presence of compound 4 at 12 μM: 12 µg/mL
[10]; Enterococcus faecium, ATCC51559
  MIC: 1.2 µM
[10]; VREm (VRE), ratio of MIC values
  fold more active than vancomycin: about 700 fold
